Literature values, collected in EP4778943A1, “LONG-ACTING PARATHYROID HORMONE RECEPTOR AGONIST FUSION PROTEIN AND USE THEREOF” (Shanghai Btd-Bio Technology Co., Ltd., priority 2023, dated 2025).
Where no end group is shown, it is not given here.

Legend:
[1] = continuous administration once a day for 6 months; cited from earlier work
mice = conditions: continuous infusion 80 µg/kg BW/day for 2 weeks; cited from earlier work
[2] = system: TPTx (parathyroidectomy) rat model; conditions: daily 1.2 nmol/kg (low dose) and 2.4 nmol/kg (high dose), after 4 weeks, versus model group; cited from earlier work

For `CC[C@H](C)[C@H](NC(=O)[C@H](CCC(=O)O)NC(=O)[C@H](CO)NC(=O)[C@@H](NC(=O)[C@@H](N)CO)C(C)C)C(=O)N[C@@H](CCC(N)=O)C(=O)N[C@@H](CC(C)C)C(=O)N[C@@H](CCSC)C(=O)N[C@@H](Cc1c[nH]cn1)C(=O)N[C@@H](CC(N)=O)C(=O)N[C@@H](CC(C)C)C(=O)NCC(=O)N[C@@H](CCCCN)C(=O)N[C@@H](Cc1c[nH]cn1)C(=O)N[C@@H](CC(C)C)C(=O)N[C@@H](CC(N)=O)C(=O)N[C@@H](CO)C(=O)N[C@@H](CCSC)C(=O)N[C@@H](CCC(=O)O)C(=O)N[C@@H](CCCNC(=N)N)C(=O)N[C@H](C(=O)N[C@@H](CCC(=O)O)C(=O)N[C@@H](Cc1c[nH]c2ccccc12)C(=O)N[C@@H](CC(C)C)C(=O)N[C@@H](CCCNC(=N)N)C(=O)N[C@@H](CCCCN)C(=O)N[C@@H](CCCCN)C(=O)N[C@@H](CC(C)C)C(=O)N[C@@H](CCC(N)=O)C(=O)N[C@@H](CC(=O)O)C(=O)N[C@H](C(=O)N[C@@H](Cc1c[nH]cn1)C(=O)N[C@@H](CC(N)=O)C(=O)N[C@@H](Cc1ccccc1)C(=O)O)C(C)C)C(C)C` [teriparatide], the “bone mineral density of L2-L4, increase” value [1] is given as “about 5%” and the bone mineral density (mice) is given as “significant decrease”.

For Abaloparatide, the bone mineral density (mice) is listed as “significant decrease”.

In the case of “TransCon PTH: long-acting PTH, generic name palopegteriparatide, trade name Yorvipath (SVSEIQLMHNLGKHLNSMERVEWLRKKLQDVHNF; also: PEG carrier attached via prodrug linker, site not given here; UniProt P01270 32-65, looked up, fragment)”, the bone mineral density [2] is given as “significantly decreased”.
